Experimental data taken from publication PMC11501026, “L-Arginine and asymmetric dimethylarginine (ADMA) transport across the mouse blood-brain and blood-CSF barriers: Evidence of saturable transport at both interfaces and CNS to blood efflux” (PLOS ONE, 2024).
Where “and” joins values, the source holds several entries; their conditions need not be identical. Equal values may be shown once. Read-outs that look alike come from different tables or passages of the source.

Key:
Assay type in all cases: in vivo, mouse
[1] = self-inhibition, in situ perfusion: [^3H]-arginine with 100 μM unlabelled L-arginine; conditions: male, Balb/c, mouse, other: in situ brain perfusion, with 100 µM unlabelled L-arginine, +100uM Un-labelled arginine, 10 mins, Balb/c ♂, 5ml/min
Experimental: (§1) Self-inhibition experiments were also performed. […] Cross-competition experiments were also performed.
(§2) The percentage change in the RTissue uptake values achieved in the absence or presence of an unlabelled inhibitor can be calculated by means of Eq 4.
(§3) %change=RTissue−RInhibition/RTissue×100 Eq 4
(§4) We define RInhibition as the RTissue uptake in the presence of an inhibitor in the artificial plasma.
(§5) A decrease in the uptake of radiolabelled solute in the presence of unlabelled inhibitor is indicative of a saturable influx transport system. Conversely, an increase in the uptake of radiolabelled solute in the presence of unlabelled inhibitor is indicative of a saturable efflux transport system.

[2] = tested on: [^3H]-arginine transport across the blood-brain and blood-CSF barriers; test: as above; conditions: +100uM Un-labelled arginine, 10 mins, Balb/c ♂, 5ml/min; single mouse
Experimental: as §1, §2, §3, §4, §5

[3] = capillary depletion analysis after in situ brain perfusion; parameters: [3H] ADMA and [14C] Sucrose uptake, homogenate / Difference (ADMA minus Sucrose), homogenate / [3H] ADMA and [14C] Sucrose uptake, supernatant / Difference (ADMA minus Sucrose), supernatant / uptake, homogenate / uptake, supernatant: unit not given here; conditions: for Kp at 30 min: other: in situ brain perfusion with artificial plasma
Experimental: The microvasculature within a sample of brain tissue can be separated from the brain parenchyma using capillary depletion analysis. Following perfusion, the remaining brain tissue after microdissection of the regions described above (typically 200–300 mg) underwent capillary depletion following a method modified for mouse. […]

[4] = cross-inhibition, in situ perfusion: [^3H]-arginine with 0.5–500 μM unlabelled ADMA; conditions: male, mouse, 10 mins, Balb/c ♂, 5ml/min
Experimental: as §1, §2, §3, §4, §5
Concentrations of ADMA were specifically selected to mimic plasma concentrations under normal conditions (0.5 μM), pathophysiological conditions (3.0 μM), and then supraphysiological concentrations (10, 100 and 500 μM).

## OC[C@H]1O[C@@](CO)(O[C@H]2O[C@H](CO)[C@@H](O)[C@H](O)[C@H]2O)[C@@H](O)[C@@H]1O [[^14C]-sucrose, reference compound]
[1]; pellet, pellet: [14C] Sucrose, mean
  Kp at 10 min: 0.00699
[1]; pituitary gland, pituitary gland: [14C] Sucrose, mean
  Kp at 10 min: 0.151
[1]; pons, pons: [14C] Sucrose, mean
  Kp at 10 min: 0.0326
[1]; supernatant, supernatant: [14C] Sucrose, single mouse
  Kp at 10 min: 0.0159
[2]
  pellet: [14C] Sucrose: 0.001001 and 0.002262 and 0.003661 and 0.002471 and 0.002325
[3]; 2.5 mins, Balb/c ♂, 5ml/min, individual mouse
  [3H] ADMA and [14C] Sucrose uptake, supernatant: 0.005063
[3]; [3H] ADMA + [14C] Sucrose, 30 mins, Balb/c ♂, 5ml/min, individual mice
  uptake, pellet: 0.004118 and 0.004644 and 0.005073
[3]; male, BALB/c, mouse, capillary depletion pellet (endothelial cell-enriched), [3H] ADMA and [14C] Sucrose uptake, pellet, 20 mins, 5ml/min, mean
  Kp at 20 min, 62.5 nM: 0.00274
[3]; male, BALB/c, mouse, capillary depletion pellet (endothelial cell-enriched), pellet: [14C] Sucrose, 30 mins, Balb/c ♂, 5ml/min, single mouse
  Kp at 30 min: 0.00943
[3]; male, BALB/c, mouse, capillary depletion supernatant (brain parenchyma), [3H] ADMA and [14C] Sucrose uptake, supernatant, 2.5 mins, 5ml/min, mean
  Kp at […]: 0.0098
[3]; male, BALB/c, mouse, endothelial cell-enriched pellet (capillary depletion), [3H] ADMA and [14C] Sucrose uptake, pellet, 2.5 mins, 5ml/min, mean
  Kp at […]: 0.00237
[3]; male, BALB/c, mouse, endothelial cell-enriched pellet (capillary depletion), other: in situ brain perfusion, [3H] ADMA + [14C] Sucrose, 30 mins, Balb/c ♂, 5ml/min, individual mice, read-out: uptake, pellet
  Kp at 30 min, 62.5 nM: 0.00308
[3]; male, BALB/c, mouse, endothelial cell-enriched pellet (capillary depletion), other: in situ brain perfusion, [3H] ADMA + [14C] Sucrose, 30 mins, Balb/c ♂, 5ml/min, mean, read-out: uptake, pellet
  Kp at 30 min, 62.5 nM: 0.00455
[3]; male, BALB/c, mouse, endothelial cell-enriched pellet (capillary depletion), pellet, 2.5 mins, uncorrected, given as fraction, read-out: tissue or CSF to plasma ratio (mean)
  Kp at […]: 0.00218
[3]; male, BALB/c, mouse, endothelial cell-enriched pellet (capillary depletion), pellet, 10 mins, uncorrected, given as fraction, read-out: tissue or CSF to plasma ratio (mean)
  Kp at 10 min: 0.00461
[3]; male, BALB/c, mouse, whole-brain homogenate (capillary depletion), homogenate: [14C] Sucrose, 30 mins, Balb/c ♂, 5ml/min, mean
  Kp at 30 min: 0.0653
[3]; male, BALB/c, mouse, whole-brain homogenate (capillary depletion), other: in situ brain perfusion, [3H] ADMA + [14C] Sucrose, 30 mins, Balb/c ♂, 5ml/min, mean, read-out: uptake, homogenate
  Kp at 30 min, 62.5 nM: 0.0336
[3]; male, BALB/c, mouse, whole-brain homogenate (capillary depletion), other: in situ brain perfusion, [3H] ADMA and [14C] Sucrose uptake, homogenate, CONTROL, 10 mins, Balb/c ♂, 5ml/min, mean
  Kp at 10 min, 62.5 nM: 0.0971
[3]; male, Balb/c, mouse, endothelial cell-enriched pellet after capillary depletion, other: in situ brain perfusion, with unlabelled ADMA 3 µM, Arginine / Sucrose uptake, pellet, mean, [3H] Arginine + [14C] Sucrose + 3 uM ADMA, 10 mins, Balb/c ♂, 5ml/min, mean
  Kp at 10 min: 0.00326
[3]; male, Balb/c, mouse, endothelial cell-enriched pellet after capillary depletion, other: in situ brain perfusion, with unlabelled ADMA 10 µM, Arginine / Sucrose uptake, pellet, mean, [3H] Arginine + [14C] Sucrose + 10 uM ADMA, 10 mins, Balb/c ♂, 5ml/min, mean
  Kp at 10 min: 0.00425
[3]; male, Balb/c, mouse, endothelial cell-enriched pellet, other: in situ brain perfusion, with unlabelled ADMA 100 µM, Arginine / Sucrose uptake, pellet, mean, [3H] Arginine + [14C] Sucrose + 100µM un-labelled ADMA, 10 mins, Balb/c ♂, 5ml/min, mean
  Kp at 10 min: 0.00383
[3]; male, Balb/c, mouse, supernatant (brain parenchyma) after capillary depletion, other: in situ brain perfusion, with unlabelled ADMA 3 µM, Arginine / Sucrose uptake, supernatant, mean, [3H] Arginine + [14C] Sucrose + 3 uM ADMA, 10 mins, Balb/c ♂, 5ml/min, mean
  Kp at 10 min: 0.0159
[3]; male, Balb/c, mouse, supernatant (brain parenchyma), other: in situ brain perfusion, with unlabelled ADMA 100 µM, Arginine / Sucrose uptake, supernatant, [3H] Arginine + [14C] Sucrose + 100µM un-labelled ADMA, 10 mins, Balb/c ♂, 5ml/min, single mice
  Kp at 10 min: 0.0158
[4]; BALB/c, other: in situ brain perfusion with artificial plasma, with unlabelled ADMA 500 µM, [3H] Arginine and [14C] Sucrose uptake, pellet, + 500µM un-labelled ADMA, mean
  Kp at 10 min: 0.00271
[4]; BALB/c, thalamus, other: in situ brain perfusion with artificial plasma, with unlabelled ADMA 500 µM, [3H] Arginine and [14C] Sucrose uptake, thalamus, + 500µM un-labelled ADMA, mean
  Kp at 10 min: 0.034
[4]; Balb/c, CSF, other: in situ brain perfusion, with unlabelled ADMA 100 µM, Arginine / Sucrose uptake, CSF, mean, [3H] Arginine + [14C] Sucrose + 100µM un-labelled ADMA, mean
  Kp at 10 min: 0.149
[4]; Balb/c, caudate nucleus, other: in situ brain perfusion, with unlabelled ADMA 10 µM, Arginine / Sucrose uptake, caudate nucleus, mean, [3H] Arginine + [14C] Sucrose + 10 uM ADMA, mean
  Kp at 10 min: 0.0357
[4]; Balb/c, cerebellum, other: in situ brain perfusion, with unlabelled ADMA 0.5 µM, cerebellum: [14C] Sucrose, + 0.5 uM ADMA, mean
  Kp at 10 min: 0.0327
[4]; Balb/c, choroid plexus, other: in situ brain perfusion, with 0.5 µM unlabelled ADMA, choroid plexus: [14C] Sucrose, + 0.5 uM ADMA, mean
  Kp at 10 min: 0.162
[4]; Balb/c, frontal cortex, other: in situ brain perfusion, with unlabelled ADMA 3 µM, Arginine / Sucrose uptake, frontal cortex, [3H] Arginine + [14C] Sucrose + 3 uM ADMA, single mice
  Kp at 10 min: 0.0326
[4]; Balb/c, hypothalamus, other: in situ brain perfusion, with unlabelled ADMA 3 µM, Arginine / Sucrose uptake, hypothalamus, mean, [3H] Arginine + [14C] Sucrose + 3 uM ADMA, mean
  Kp at 10 min: 0.0456
[4]; Balb/c, hypothalamus, other: in situ brain perfusion, with unlabelled ADMA 10 µM, Arginine / Sucrose uptake, hypothalamus, mean, [3H] Arginine + [14C] Sucrose + 10 uM ADMA, mean
  Kp at 10 min: 0.074
[4]; Balb/c, hypothalamus, other: in situ brain perfusion, with unlabelled ADMA 100 µM, Arginine / Sucrose uptake, hypothalamus, mean, [3H] Arginine + [14C] Sucrose + 100µM un-labelled ADMA, mean
  Kp at 10 min: 0.0349
[4]; Balb/c, pellet (cerebral capillary endothelial cells), other: in situ brain perfusion, with unlabelled ADMA 0.5 µM, pellet: [14C] Sucrose, + 0.5 uM ADMA, mean
  Kp at 10 min: 0.00977
[4]; Balb/c, pineal gland, other: in situ brain perfusion, with unlabelled ADMA 10 µM, Arginine / Sucrose uptake, pineal gland, mean, [3H] Arginine + [14C] Sucrose + 10 uM ADMA, mean
  Kp at 10 min: 0.504
[4]; Balb/c, pituitary gland, other: in situ brain perfusion, with 0.5 µM unlabelled ADMA, pituitary gland: [14C] Sucrose, + 0.5 uM ADMA, mean
  Kp at 10 min: 0.13
[4]; Balb/c, pituitary gland, other: in situ brain perfusion, with unlabelled ADMA 3 µM, Arginine / Sucrose uptake, pituitary gland, mean, [3H] Arginine + [14C] Sucrose + 3 uM ADMA, mean
  Kp at 10 min: 0.146
[4]; Balb/c, pons, other: in situ brain perfusion, with unlabelled ADMA 0.5 µM, pons: [14C] Sucrose, + 0.5 uM ADMA, mean
  Kp at 10 min: 0.0597
[4]; Balb/c, pons, other: in situ brain perfusion, with unlabelled ADMA 3 µM, Arginine / Sucrose uptake, pons, mean, [3H] Arginine + [14C] Sucrose + 3 uM ADMA, mean
  Kp at 10 min: 0.0612
[4]; Balb/c, pons, other: in situ brain perfusion, with unlabelled ADMA 10 µM, Arginine / Sucrose uptake, pons, mean, [3H] Arginine + [14C] Sucrose + 10 uM ADMA, mean
  Kp at 10 min: 0.0764
[4]; Balb/c, thalamus, other: in situ brain perfusion, with unlabelled ADMA 10 µM, Arginine / Sucrose uptake, thalamus, mean, [3H] Arginine + [14C] Sucrose + 10 uM ADMA, mean
  Kp at 10 min: 0.0352
